Assay [1] relates to tympanic membrane (TM) of rats with active bacterial OM. As to the kind of experiment: Comparative TM transit of individual phage clones in vivo (plaque assay of ME fluid). On the set-up: species or system rat (male Sprague-Dawley), NTHi-induced OM. To be noted: for phage particles in the ME after 1 hr incubation of the peptide-phage on the TM: 10^10 PFUs applied, mean of six animals; for TM-transit rate into the ME compared with WT phage and the other clones: phage clone displaying the peptide, 1 × 10^10 phage particles on one TM for 1 hr, six rats, plaque assay of ME fluid. Here is the method:
(§1) All animal experiments were performed in strict accordance to the Guide for the Care and Use of Laboratory Animals of the National Institutes of Health (NIH) and the policies of the Veterans Affairs San Diego Healthcare Systems, CA. Experiments were carried out in strict accordance with an approved Institutional Animal Care and Use Committee (IACUC) protocol. Male Sprague–Dawley rats were purchased from The Jackson Laboratory. The animals were anesthetized with an intraperitoneal injection of 1.0–1.5 ml per 200–300 g bodyweight of rodent cocktail (40 mg/Kg Ketamine, 10 mg/Kg Xylasine, and 0.75 mg/Kg Acepromazine). The skin of the neck was shaved and treated with Povidone antiseptic solution. OM was induced by infecting the ME with nontypeable Haemophilus influenzae (NTHi) in a laboratory setting by surgically exposing the bulla via a ventral approach through a vertical midline incision made in the neck. A 25-gauge needle was used to fenestrate the bulla and inject ~50 μL saline solution containing 10^4 CFU/mL NTHi bacteria strain 3655 (biotype II, originally isolated from the ME of a pediatric OM patient). Following the inoculation, the opening was closed and incision was stapled. The TMs were visually confirmed to be intact after surgery and the rats were given Lactated Ringer’s solution and buprenorphine subcutaneously postoperatively. For in vivo phage display experiments, rats were used at two days post NTHi inoculation. The ears were examined otoscopically at this time to confirm signs of active infection and the presence of fluid in the ME cavity.
After three or ten rounds of subtraction/selection in strategies 1 and 2 respectively, single blue plaques were selected at random for preparation of purified stocks and sequencing as recommended by the manufacturer (New England Biolabs, Cambridge, MA, USA). Phage transit efficiency was determined by incubating 1 × 10^10 PFUs (plaque-forming units) of specific phage over the TMs of rats in vivo for 1 hr. At least six animals per time point were used. Incubation, washings, and elution conditions were performed as above. The phage transiting efficiency was determined by comparing the number of plaque-forming phage recovered from the ME fluid (output) by the number of plaque-forming phage in the input (TM side).
We quantified the rate of TM transit into the ME for all peptides identified by Strategy 1 (Fig. 3A) and those from Strategy 2 (Fig. 3B) that appeared at a frequency of three or more in our sequenced sample (Tables 1 and 2). Individual phage clones were amplified and 1 × 10^10 phage particles were applied onto one TM of six anesthetized rats for 1 hr. The number of phage particles recovered from the ME was then compared to that observed for WT (untargeted) phage. […] On the other hand, the peptide sequence of BPT-4 was clearly distinct in the phylogeny analysis.

The subject of assay [2] is healthy (uninfected) tympanic membrane. As to the kind of experiment: TMT-3 phage transport across TMs of uninfected MEs. The assay is classed as in vivo, rat. Particulars: n = 6, data not shown. The text has this:
To establish the specificity of translocation, we assessed whether a synthetic TMT-3 peptide would interfere with internalization of corresponding peptide-bearing phage into the ME. […] In addition, TMT-3 phage was applied onto the TMs of uninfected MEs (n = 6). We observed that for healthy TMs, phage transport into the ME was quite limited when compared to the infected TM (data not shown). This could be attributed to limitations in efficient phage transport when fluid is not present on the other side of the TM. Alternatively, it is possible that the transit mechanism employed is only present in infected TMs.

For assay [3], the system named is TMs of ex vivo MEs from rats undergoing OM. As to the kind of experiment: Ex vivo ME transport: dependence on time after death and temperature. On the set-up: species or system rat. Particulars: for phage recovery through ex vivo TMs: warmed to 37 °C, 1 hr with phage. The method, then:
In order to learn more about the pharmacokinetics mechanisms of transport, we tested the effect of varying metabolism or temperature on transport rates. […] MEs were removed intact from deeply anesthetized rats undergoing OM as described above. […] Translocation is also temperature dependent. […] It is well known that endocytosis is inhibited at 4 °C[36][37].

Assay [4] relates to tympanic membrane (TM) of rats with OM. Briefly: Transport kinetics and saturation of TMT-3 phage in vivo. On the set-up: species or system rat (male Sprague-Dawley), NTHi-induced OM. To be noted: for phage recovery from the ME: at least six animals per time point. Here is the method:
as §1
The phage peptide with one of the highest transport capacities measured above TMT-3 SADSTKTTHLTL, was selected for further transport specificity, kinetics and competitive binding assays. To evaluate the kinetics of transport of the TMT-3 single phage clone, a TMT-3 phage preparation was incubated on the TM over a 1, 2 or 4 hr time period at 1 × 10^10 PFU concentration. At least six animals per time point were used. Incubation, washing, and elution conditions were performed as above in rats with OM. The level of phage transport was evaluated by determining the titer (PFUs) of TMT-3 phage present in the ME fluid. To assess transport saturation, the recovery of TMT-3 phage from the ME was compared following application of 10^10 versus 10^12 phage particles to the TM for 1 hr. The corresponding free peptide SHSADSTKTTHLTLGGG was synthesized by Genscript (Piscataway, NJ, USA) in addition to an untargeted randomized control peptide SHDLSTSATLTHTKGGG (Genscript, Piscataway, NJ, USA) at purity >95%. All peptides were reconstituted in PBS pH, 7.2. For the competition assay TMT-3 phage application to the TM was performed at titer of 10^10 PFUs, as above. However, 1 μM of free peptide was included with the phage.

Regarding DVGAGRWFSDNG [TMT-4], in assay [1] (1 hr, rats with OM), the “phage particles in the ME after 1 hr incubation of the peptide-phage on the TM” value (“phage particles in the ME” below) is on record as “more than 2 × 10^3 phage particles”. Further, the “TM-transit rate into the ME compared with WT phage and the other clones” value in assay [1] is on record as “highest rates of transport”.
“SADSTKTTHLTL [TMT-3, transport tests used the phage clone]”: the “phage particles in the ME” value in assay [1] (1 hr, rats with OM) is recorded as “more than 2 × 10^3 phage particles”. Further, the “recovery from the ME among the six positive phage clones” value in assay [1] (10^10 PFUs, 1 hr, rats with OM) is listed as “greatest recovery from the ME”. For the same sequence, the “TM-transit rate into the ME compared with WT phage and the other clones” value in assay [1] is on record as “highest rates of transport”. For the same sequence, the “phage transport into the ME through healthy TMs compared to the infected TM” value in assay [2] is reported as “quite limited”. Also, the “ME recovery of phage ex vivo” value in assay [3] (4 °C, 1 hr exposure of the TM to 10^10 PFUs) was “severely compromised”. Moreover, the “phage recovery through ex vivo TMs” value in assay [3] (TMs stored 12 hrs postmortem at 4 °C) and in assay [3] (TMs stored 24 hrs postmortem at 4 °C) was “No recovery” throughout. Further, the “dependence of phage recovery on time on the TM” value in assay [4] (1, 2 and 4 hrs of contact with the infected TM, 1 × 10^10 PFU) was “exponential increase”. The “dependence of phage recovery on the amount applied (saturation)” value in assay [4] (10^10 versus 10^12 phage particles applied to the TM for 1 hr) is given as “increased proportionally with concentration”. Moreover, the “phage recovery from the ME” value in assay [4] (1 hr of contact with the infected TM, 1 × 10^10 PFU) is “approximately 10^4 phage particles”; in assay [4] (4 hrs of contact with the infected TM, 1 × 10^10 PFU), ~10^6 phage particles.
Turning to SDDSRPIAQFAI [TMT-5], the “TM-transit rate into the ME compared with WT phage and the other clones” value in assay [1] is reported as “highest rates of transport”.
Take TFNPPPPQMPST [BPT-4]: the “phage particles in the ME” value in assay [1] (1 hr, rats with OM) is given as “more than 2 × 10^3 phage particles”. Also, the “TM-transit rate into the ME compared with WT phage and the other clones” value in assay [1] is “highest rates of transport”.
As to THPSTKVPGTPA [BPT-3], the “phage particles in the ME” value in assay [1] (1 hr, rats with OM) is listed as “more than 2 × 10^3 phage particles”. In addition, the “TM-transit rate into the ME compared with WT phage and the other clones” value in assay [1] is recorded as “highest rates of transport”.
With TLSPKMPGGGYW [TMT-2], the “phage particles in the ME” value in assay [1] (1 hr, rats with OM) was “more than 2 × 10^3 phage particles”. For the same sequence, the “TM-transit rate into the ME compared with WT phage and the other clones” value in assay [1] is “highest rates of transport”.

The record behind these values is publication PMC4780071, “Discovery of a Biological Mechanism of Active Transport through the Tympanic Membrane to the Middle Ear” (Scientific Reports, 2016).
